How the values were obtained:
[1] = test system: Smn protein in SMA patient fibroblast cells (GM03813); assay: Smn protein assay in cultured cells (SMN HTRF); assay type: cell-based, human; settings: SMA patient fibroblast cells, 48 hours; for EC1.5x for Smn protein expression: 7-point concentration curve, SMN HTRF, concentration producing 1.5 times Smn protein vs DMSO vehicle control; for maximum fold (Fold) increase of Smn protein: 7-point concentration data, fold relative to vehicle control
Outline: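 Read-out: HTRF 665/620 nm ratio, blank-subtracted as ΔF, then expressed as fold over DMSO vehicle. Fibroblasts from SMA patients were exposed to compounds for 48 h (7 points, 3.16-fold steps, triplicates). Values are EC1.5× and maximum fold Smn increase.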

[2] = test system: SMN2 minigene mRNA (SMN2-A minigene) in HEK293H cells; assay: SMN2 minigene mRNA splicing RT-qPCR assay in cultured cells; assay type: cell-based, human; settings: Homo sapiens, HEK293-H; concentration increasing full length SMN2 mRNA 1.5-fold relative to vehicle-treated cells; HEK293H cells with SMN2-A minigene, 24 hours, 7-point concentration data; read-out: EC1.5x for production of full length SMN2 mRNA
Outline: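 Read-out: minigene-specific full-length (exon 7-included) SMN2 mRNA by one-step multiplex RT-qPCR, normalized to GAPDH and divided by vehicle-treated level. Stable SMN2-A minigene HEK293H cells, 24 h compound exposure, 7 concentrations in duplicate. EC1.5× = concentration raising FL mRNA 1.5-fold.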

SMILES	melting point [°C]	EC1.5x for Smn protein expression [1]	maximum fold (Fold) increase of Smn protein [1]	EC (1.5-fold increase) [2] [µM]
Cc1cn2cc(-c3cc(=O)n4cc(N5CCN(C(C)C)[C@@H](C)C5)ccc4n3)cc(F)c2n1 [Compound 541, 2-(8-fluoro-2-methylimidazo[1,2-a]pyridin-6-yl)-7-[(3S)-3-methyl-4-(propan-2-yl)piperazin-1-yl]-4H-pyrido[1,2-a]pyrimidin-4-one]	191 to 194	*** (an EC1.5× between >0.3 μM and ≤1 μM is indicated by three stars (***))	***** (a fold increase >1.65 is indicated by five stars (*****))	0.1 to 0.3
Cc1cn2cc(-c3cc(=O)n4cc(N5CCN(C6CC6)[C@@H](C)C5)ccc4n3)cc(F)c2n1 [Compound 542, 7-[(3S)-4-cyclopropyl-3-methylpiperazin-1-yl]-2-(8-fluoro-2-methylimidazo[1,2-a]pyridin-6-yl)-4H-pyrido[1,2-a]pyrimidin-4-one]	242 to 246	*** (an EC1.5× between >0.3 μM and ≤1 μM is indicated by three stars (***))	***** (a fold increase >1.65 is indicated by five stars (*****))	< 0.1
Cc1cn2cc(-c3cc(=O)n4cc(N5CCN(C6CCC6)[C@@H](C)C5)ccc4n3)cc(F)c2n1 [Compound 543, 7-[(3S)-4-cyclobutyl-3-methylpiperazin-1-yl]-2-(8-fluoro-2-methylimidazo[1,2-a]pyridin-6-yl)-4H-pyrido[1,2-a]pyrimidin-4-one]	264 to 267	**** (an EC1.5x≤0.3 μM is indicated by four stars (****))	***** (a fold increase >1.65 is indicated by five stars (*****))	< 0.1
C[C@@H]1CN(c2ccc3nc(-c4ccc5c(cnn5C)c4)cc(=O)n3c2)CCN1 [Compound 545, 2-(1-methyl-1H-indazol-5-yl)-7-[(3R)-3-methylpiperazin-1-yl]-4H-pyrido[1,2-a]pyrimidin-4-one]	190 to 192	**** (an EC1.5x≤0.3 μM is indicated by four stars (****))	***** (a fold increase >1.65 is indicated by five stars (*****))	0.1 to 0.3
CCc1nc(C)cn2nc(-c3cc(=O)n4cc(N5CCNCC5)ccc4n3)cc12 [Compound 546, 2-(4-ethyl-6-methylpyrazolo[1,5-a]pyrazin-2-yl)-7-(piperazin-1-yl)-4H-pyrido[1,2-a]pyrimidin-4-one]	230 to 233	**** (an EC1.5x≤0.3 μM is indicated by four stars (****))	***** (a fold increase >1.65 is indicated by five stars (*****))	< 0.1
CCc1nc(C)cn2nc(-c3cc(=O)n4cc(N5CCN(C)CC5)ccc4n3)cc12 [Compound 547, 2-(4-ethyl-6-methylpyrazolo[1,5-a]pyrazin-2-yl)-7-(4-methylpiperazin-1-yl)-4H-pyrido[1,2-a]pyrimidin-4-one]	250 to 252	**** (an EC1.5x≤0.3 μM is indicated by four stars (****))	***** (a fold increase >1.65 is indicated by five stars (*****))	< 0.1
CCc1nc(C)cn2nc(-c3cc(=O)n4cc(N5CCN(CC)CC5)ccc4n3)cc12 [Compound 548, 2-(4-ethyl-6-methylpyrazolo[1,5-a]pyrazin-2-yl)-7-(4-ethylpiperazin-1-yl)-4H-pyrido[1,2-a]pyrimidin-4-one]	250 to 252	**** (an EC1.5x≤0.3 μM is indicated by four stars (****))	***** (a fold increase >1.65 is indicated by five stars (*****))	< 0.1
CCc1nc(C)cn2nc(-c3cc(=O)n4cc(N5CCN(CCO)CC5)ccc4n3)cc12 [Compound 549, 2-(4-ethyl-6-methylpyrazolo[1,5-a]pyrazin-2-yl)-7-[4-(2-hydroxyethyl)piperazin-1-yl]-4H-pyrido[1,2-a]pyrimidin-4-one]	240 to 242	**** (an EC1.5x≤0.3 μM is indicated by four stars (****))	***** (a fold increase >1.65 is indicated by five stars (*****))	< 0.1
CCc1nc(C)cn2nc(-c3cc(=O)n4cc(N5CCC(N(C)C)CC5)ccc4n3)cc12 [Compound 550, 7-[4-(dimethylamino)piperidin-1-yl]-2-(4-ethyl-6-methylpyrazolo[1,5-a]pyrazin-2-yl)-4H-pyrido[1,2-a]pyrimidin-4-one]	258 to 260	**** (an EC1.5x≤0.3 μM is indicated by four stars (****))	***** (a fold increase >1.65 is indicated by five stars (*****))	< 0.1
CCc1nc(C)cn2nc(-c3cc(=O)n4cc(N5CCC(N(CC)CC)CC5)ccc4n3)cc12 [Compound 551, 7-[4-(diethylamino)piperidin-1-yl]-2-(4-ethyl-6-methylpyrazolo[1,5-a]pyrazin-2-yl)-4H-pyrido[1,2-a]pyrimidin-4-one]	232 to 235	**** (an EC1.5x≤0.3 μM is indicated by four stars (****))	***** (a fold increase >1.65 is indicated by five stars (*****))	0.1 to 0.3
C[C@@H]1CN(c2ccc3nc(-c4ccc5c(cnn5C)c4)cc(=O)n3c2)C[C@H](C)N1 [Compound 552, 7-[(3R,5S)-3,5-dimethylpiperazin-1-yl]-2-(1-methyl-1H-indazol-5-yl)-4H-pyrido[1,2-a]pyrimidin-4-one]	240 to 242	*** (an EC1.5× between >0.3 μM and ≤1 μM is indicated by three stars (***))	**** (a fold increase between >1.5 and ≤1.65 is indicated by four stars (****))	0.3 to 1
C[C@H]1CN(c2ccc3nc(-c4ccc5c(cnn5C)c4)cc(=O)n3c2)CCN1 [Compound 553, 2-(1-methyl-1H-indazol-5-yl)-7-[(3S)-3-methylpiperazin-1-yl]-4H-pyrido[1,2-a]pyrimidin-4-one]	206 to 208	**** (an EC1.5x≤0.3 μM is indicated by four stars (****))	***** (a fold increase >1.65 is indicated by five stars (*****))	0.1 to 0.3

Further lines, with some results ahead:

melting point [°C]	SMILES	EC1.5x for Smn protein expression [1]	maximum fold (Fold) increase of Smn protein [1]	EC (1.5-fold increase) [2] [µM]
218 to 220	Cc1cn2cc(-c3cc(=O)n4cc(C5CCN(C(C)C)CC5)ccc4n3)ccc2n1 [Compound 554, 2-(2-methylimidazo[1,2-a]pyridin-6-yl)-7-[1-(propan-2-yl)piperidin-4-yl]-4H-pyrido[1,2-a]pyrimidin-4-one]	**** (an EC1.5x≤0.3 μM is indicated by four stars (****))	***** (a fold increase >1.65 is indicated by five stars (*****))	0.1 to 0.3
272 to 277	Cc1cn2ccc(-c3cc(=O)n4cc(N5CCNCC5)ccc4n3)cc2n1 [Compound 555, 2-(2-methylimidazo[1,2-a]pyridin-7-yl)-7-(piperazin-1-yl)-4H-pyrido[1,2-a]pyrimidin-4-one]	** (an EC1.5× between >1 μM and ≤3 μM is indicated by two stars (**))	*** (a fold increase between >1.35 and ≤1.5 is indicated by three stars (***))	1 to 3
257 to 260	Cc1cn2ccc(-c3cc(=O)n4cc(C5CCNCC5)ccc4n3)cc2n1 [Compound 556, 2-(2-methylimidazo[1,2-a]pyridin-7-yl)-7-(piperidin-4-yl)-4H-pyrido[1,2-a]pyrimidin-4-one]	** (an EC1.5× between >1 μM and ≤3 μM is indicated by two stars (**))	*** (a fold increase between >1.35 and ≤1.5 is indicated by three stars (***))	0.3 to 1
285 to 288	Cc1cn2ccc(-c3cc(=O)n4cc(N5CCN(C)CC5)ccc4n3)cc2n1 [Compound 557, 2-(2-methylimidazo[1,2-a]pyridin-7-yl)-7-(4-methylpiperazin-1-yl)-4H-pyrido[1,2-a]pyrimidin-4-one]		* (A maximum fold increase of ≤1.2 is indicated by one star (*))	1 to 3
219 to 222	CCN1CCN(c2ccc3nc(-c4ccn5cc(C)nc5c4)cc(=O)n3c2)CC1 [Compound 558, 7-(4-ethylpiperazin-1-yl)-2-(2-methylimidazo[1,2-a]pyridin-7-yl)-4H-pyrido[1,2-a]pyrimidin-4-one]		** (a fold increase between >1.2 and ≤1.35 is indicated by two stars (**))	1 to 3
255 to 260	Cc1cn2ccc(-c3cc(=O)n4cc(C5CCN(C)CC5)ccc4n3)cc2n1 [Compound 559, 2-(2-methylimidazo[1,2-a]pyridin-7-yl)-7-(1-methylpiperidin-4-yl)-4H-pyrido[1,2-a]pyrimidin-4-one]		* (A maximum fold increase of ≤1.2 is indicated by one star (*))	1 to 3
